Experimental data as given in US20070130640A1, “Methods of modulating auxin production in plants” (priority 2005, published 2007).
Where two headings read alike, the source gives them in different places.

How the values were obtained:
NIT1 = target: T1, NIT1 (Arabidopsis thaliana, UniProt P32961); conditions: cited from earlier work
T1 sequence (P32961 1-346): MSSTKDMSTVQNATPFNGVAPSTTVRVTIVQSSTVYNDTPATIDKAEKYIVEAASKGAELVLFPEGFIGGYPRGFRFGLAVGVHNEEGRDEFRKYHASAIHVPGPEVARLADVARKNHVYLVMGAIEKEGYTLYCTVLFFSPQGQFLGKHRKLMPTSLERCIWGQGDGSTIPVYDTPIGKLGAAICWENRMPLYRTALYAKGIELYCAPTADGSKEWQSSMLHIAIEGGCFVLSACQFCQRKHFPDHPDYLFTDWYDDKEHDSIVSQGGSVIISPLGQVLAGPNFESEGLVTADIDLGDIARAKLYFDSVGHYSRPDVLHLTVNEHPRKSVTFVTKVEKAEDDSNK

NIT2 = target: T2, NIT2 (Arabidopsis thaliana, UniProt P32962); conditions: cited from earlier work
T2 sequence (P32962 1-339): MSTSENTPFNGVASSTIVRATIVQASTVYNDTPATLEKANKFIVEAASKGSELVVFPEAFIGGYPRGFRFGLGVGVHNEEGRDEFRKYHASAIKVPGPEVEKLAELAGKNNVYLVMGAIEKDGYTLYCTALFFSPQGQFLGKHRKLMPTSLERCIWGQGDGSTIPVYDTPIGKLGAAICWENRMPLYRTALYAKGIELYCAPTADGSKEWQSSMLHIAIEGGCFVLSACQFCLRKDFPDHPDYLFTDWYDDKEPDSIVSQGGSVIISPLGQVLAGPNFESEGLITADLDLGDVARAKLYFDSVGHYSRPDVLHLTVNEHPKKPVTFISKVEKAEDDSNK

Arabidopsis seedlings = assay: Seedling growth on media supplemented with IAN (auxin phenotype); assay type: in vivo
Excerpt: Four nitrilases, differentially expressed during development and in response to environmental cues, catalyze hydrolysis of IAN to IAA in Arabidopsis (Bartel and Fink (1994) Proc. Natl. Acad. Sci. USA 91:6649-6653). The nitl mutant is insensitive to the auxin effects of exogenously applied IAN at the seedling stage (Normanly et al. (1997) Plant Cell 9:1781-1790). In accordance with the observed insensitivity of nit1 seedlings to IAN, NIT1 is most strongly expressed in the hypocotyl near the junction with the root in young seedlings as well as in the cotyledons. In contrast, NIT2 and NIT3 are expressed primarily in the cotyledons and NIT4 is expressed in the root tip (Bartel and Fink (1994) Proc. Natl. Acad. Sci. USA 91:6649-6653).

CYP83B1 [1] = target: T3, CYP83B1 (Arabidopsis thaliana, UniProt O65782); assay: Spectral analysis (optical difference spectroscopy) of ligand binding to heterologously expressed CYP83B1 in yeast microsomes
T3 sequence (O65782 1-499): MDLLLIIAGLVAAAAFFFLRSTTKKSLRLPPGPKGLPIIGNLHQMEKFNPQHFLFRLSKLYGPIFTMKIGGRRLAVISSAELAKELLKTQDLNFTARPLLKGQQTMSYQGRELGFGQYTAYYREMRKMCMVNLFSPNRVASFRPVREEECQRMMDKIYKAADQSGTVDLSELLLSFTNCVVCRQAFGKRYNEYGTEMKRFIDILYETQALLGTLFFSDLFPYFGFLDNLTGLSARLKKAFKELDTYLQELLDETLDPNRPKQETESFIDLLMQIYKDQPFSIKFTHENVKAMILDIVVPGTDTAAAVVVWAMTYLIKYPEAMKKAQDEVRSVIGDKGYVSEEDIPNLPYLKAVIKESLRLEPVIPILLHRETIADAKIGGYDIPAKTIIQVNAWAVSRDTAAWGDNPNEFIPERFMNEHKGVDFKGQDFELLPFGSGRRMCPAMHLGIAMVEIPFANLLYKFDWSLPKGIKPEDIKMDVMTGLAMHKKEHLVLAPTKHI
Experimental: (§1) FIG. 3. (A) Analysis of CYP83B1 by optical difference spectroscopy. […] After incubation for 10 min at 28° C., reaction mixtures were extracted with ethylacetate and analyzed by TLC. (s) substrate, (p) product.

CYP83B1 [2] = target: T3, CYP83B1; assay: CYP83B1 catalysis of [5-3H]indole-3-acetaldoxime metabolism (Km, Vmax, inhibition; TLC / scintillation counting)
Experimental: as §1
After incubation, reaction mixtures were stopped by adding SDS to 0.4% and were analyzed by thin layer chromatography (TLC). TLC plates were developed in chloroform/methanol/water (85:14:1) and radioactive bands visualized by autoradiography.
Reactions were stopped and extracted with ethylacetate. Aliquots of the substrate-containing ethylacetate phase and product-containing water phase were subjected to liquid scintillation counting.

wild type seedlings = assay: Indole glucosinolate levels in seedlings grown on MS agar, quantified colorimetrically as SCN; assay type: in vivo, Arabidopsis; conditions: wild type seedlings germinated on MS media with 100 μM tryptamine; two week old; n=10
Experimental: FIG. 6. Indole glucosinolate levels are affected by CYP83B1 expression. Indole glucosinolates in individual two week old seedlings grown on MS agar were quantified calorimetrically as SCN. 1) Wild type, 2) rnt1-1, 3) molecularly complemented line 3.25.11, 4) overexpression line 1.4.7, and 5) wild type grown on 100 μM tryptamine. Data are represented as the mean ±S.E, (n=10 seedlings). Except for the molecularly complemented line 3.25.11, mean indole glucosinolate values all differ from wild type seedling values at a 1% confidence value (t-test).
Tryptophan-derived indole-3-acetaldoxime is also an intermediate in the biosynthesis of indole glucosinolates.

[3] = substrate: ON=CCc1c[nH]c2ccccc12; assay: purified protein, by the assay type; conditions: other: in the presence of cysteine, 2.2 nM CYP83B1, 1 min at 28 °C, estimated, pH 7.6

N#CCc1c[nH]c2ccccc12 [IAN, indole-3-acetonitrile]
Km for IAN hydrolysis (NIT1): in the mM range
Km for IAN hydrolysis (NIT2): in the mM range
effect on rnt1-1 seedlings (germination) (Arabidopsis seedlings; rnt1-1 seedlings grown on 50 μM IAN): almost completely inhibiting germination
phenotype of wild type seedlings (Arabidopsis seedlings; wild type Arabidopsis seedlings on media with 50 μM IAN): phenocopy rnt1-1 seedlings

ON=CCc1c[nH]c2ccccc12 [indole-3-acetaldoxime]
type of binding spectrum caused (CYP83B1 [1]): weak reverse type I spectrum
turnover (number) (CYP83B1 [2]; in the presence of cysteine, 2.2 nM CYP83B1, 1 min at 28 °C): 53 min⁻¹

NCCc1c[nH]c2ccccc12 [tryptamine]
indole glucosinolate levels compared to wild type seedlings (wild type seedlings): reduced levels
type of binding spectrum caused (CYP83B1 [1]; yeast microsomes containing CYP83B1): typical type IIa binding spectrum
inhibition of CYP83B1 catalysis (indole-3-acetaldoxime oxidation) (CYP83B1 [2]; 22 nM CYP83B1, 35 μM [5-3H]indole-3-acetaldoxime, 17.5 mM tryptamine, 10 min at 28 °C, TLC (FIG. 3B)): inhibitor

B1: CYP83B1 (Arabidopsis thaliana) (protein)
chain: MDLLLIIAGLVAAAAFFFLRSTTKKSLRLPPGPKGLPIIGNLHQMEKFNPQHFLFRLSKLYGPIFTMKIGGRRLAVISSAELAKELLKTQDLNFTARPLLKGQQTMSYQGRELGFGQYTAYYREMRKMCMVNLFSPNRVASFRPVREEECQRMMDKIYKAADQSGTVDLSELLLSFTNCVVCRQAFGKRYNEYGTEMKRFIDILYETQALLGTLFFSDLFPYFGFLDNLTGLSARLKKAFKELDTYLQELLDETLDPNRPKQETESFIDLLMQIYKDQPFSIKFTHENVKAMILDIVVPGTDTAAAVVVWAMTYLIKYPEAMKKAQDEVRSVIGDKGYVSEEDIPNLPYLKAVIKESLRLEPVIPILLHRETIADAKIGGYDIPAKTIIQVNAWAVSRDTAAWGDNPNEFIPERFMNEHKGVDFKGQDFELLPFGSGRRMCPAMHLGIAMVEIPFANLLYKFDWSLPKGIKPEDIKMDVMTGLAMHKKEHLVLAPTKHI
Km [3]: 3 µM
